The source of these data is US11111251B2, “Positive allosteric modulators of the muscarinic acetylcholine receptor M1” (Vanderbilt University, priority 2016, dated 2021).

The target of the experiment is T1, human mAChR M1 (Homo sapiens, UniProt P11229).
T1 sequence (P11229 1-460): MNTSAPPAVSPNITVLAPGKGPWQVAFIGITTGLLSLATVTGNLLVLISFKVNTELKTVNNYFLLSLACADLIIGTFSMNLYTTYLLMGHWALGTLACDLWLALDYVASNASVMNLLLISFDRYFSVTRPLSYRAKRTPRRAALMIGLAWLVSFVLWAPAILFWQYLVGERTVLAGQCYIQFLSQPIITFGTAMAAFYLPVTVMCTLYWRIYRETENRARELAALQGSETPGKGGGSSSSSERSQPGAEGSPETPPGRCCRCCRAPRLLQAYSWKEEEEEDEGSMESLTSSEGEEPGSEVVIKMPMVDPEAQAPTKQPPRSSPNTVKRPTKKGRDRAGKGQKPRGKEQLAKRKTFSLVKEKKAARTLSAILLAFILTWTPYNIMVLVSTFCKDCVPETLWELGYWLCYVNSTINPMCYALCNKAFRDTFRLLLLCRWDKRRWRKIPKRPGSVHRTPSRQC
The experiment can be described thus: mAChR M1 cell-based functional assay: calcium mobilization, positive allosteric modulator mode (increase in EC20 acetylcholine response). To be noted: for Emax: read-out: Human M1 Emax (%). An excerpt:
a. Cell Lines Expressing Muscarinic Acetylcholine Receptors
Chinese hamster ovary (CHO-K1) cells stably expressing rat (r)M1 were purchased from the American Type Culture Collection and cultured according to their indicated protocol. CHO cells stably expressing human (h)M2, hM3, and hM5 were described previously (Levey, et al., 1991); hMi and hM4 cDNAs were purchased from Missouri S&T cDNA Resource; rM4 cDNA was provided by T. I. Bonner (National Institutes of Health, Bethesda, Md.). rM2 and rM3 were cloned from a rat brain cDNA library and sequence verified. hMi, rM2, rM3, hM4, and rM4 cDNAs were used to stably transfect CHO-K1 cells purchased from the American Type Culture Collection using Lipofectamine2000. To make stable rM2, hM2, rM3, hM4, and rM4 cell lines for use in calcium mobilization assays, these cells also were stably transfected with a chimeric G-protein (Gqi5) (provided by B. R. Conklin, University of California, San Francisco) using Lipofectamine 2000. rMi, hMi, rM3, hM3, rM5, and hM5 cells were grown in Ham's F-12 medium containing 10% heat-inactivated fetal bovine serum (FBS), 20 mM HEPES, and 50 μg/mL G418 sulfate. rM2-Gqi5, hM2-Gqi5, and hM4-Gqi5 cells were grown in the same medium also containing 500 μg/mL Hygromycin B. Stable rM4-Gqi5 cells were grown in DMEM containing 10% heat-inactivated FBS, 20 mM HEPES, 400 μg/mL G418 sulfate, and 500 μg/mL Hygromycin B.
b. Cell-Based Functional Assay of Muscarinic Acetylcholine Receptor Activity
For high throughput measurement of agonist-evoked increases in intracellular calcium, CHO-K1 cells stably expressing muscarinic receptors were plated in growth medium lacking G418 and hygromycin at 15,000 cells/20 μL/well in Greiner 384-well black-walled, tissue culture (TC)-treated, clear-bottom plates (VWR). Cells were incubated overnight at 37° C. and 5% CO2. The next day, cells were washed using an ELX 405 (BioTek) with four washes (80 μL) of assay buffer then aspirated to 20 μL. Next, 20 μL of 16 μM Fluo-4/acetoxymethyl ester (Invitrogen, Carlsbad, Calif.) prepared as a 2.3 mM stock in DMSO and mixed in a 1:1 ratio with 10% (w/v) Pluronic F-127 and diluted in assay buffer was added to the wells and the cell plates were incubated for 50 min at 37° C. and 5% CO2. Dye was removed by washing with the ELX 405 (four […], washes of assay buffer) then aspirated to 20 μL. Compound master plates were formatted in an 11 point CRC format (1:3 dilutions) in 100% DMSO with a starting concentration of 10 mM using the BRAVO liquid handler (Agilent). Test compound CRCs were then transferred to daughter plates (240 nL) using the Echo acoustic plate reformatter (Labcyte, Sunnyvale, Calif.) and then diluted into assay buffer (40 μL) to a 2× stock using a Thermo Fisher Combi (Thermo Fisher Scientific, Waltham, Mass.).
Calcium flux was measured using the Functional Drug Screening System (FDSS) 6000 (Hamamatsu Corporation, Tokyo, Japan) as an increase in the fluorescent static ratio. Compounds were applied to cells (20 μL, 2×) using the automated system of the FDSS 6000 at 4 s into the 300 s protocol and the data were collected at 1 Hz. At 144 s into the 300s protocol, 10 μL of an EC20 concentration of the muscarinic receptor agonist acetylcholine was added (5×), followed by the addition of 12 μL an EC80 concentration of acetylcholine at the 230 s time point (5×). Agonist activity was analyzed as a concentration-dependent increase in calcium mobilization upon compound addition. Positive allosteric modulator activity was analyzed as a concentration-dependent increase in the EC20 acetylcholine response. Antagonist activity was analyzed as a concentration-dependent decrease in the EC80 acetylcholine response. Concentration-response curves were generated using a four-parameter logistical equation in XLfit curve fitting software (IDBS, Bridgewater, N.J.) for Excel (Microsoft, Redmond, Wash.) or Prism (GraphPad Software, Inc., San Diego, Calif.).

Where [1] appears, read: Table 2, human M1, read-out: Human M1 EC50.
Setting [2] is: Table 1, mAChR M1 cell-based functional assay, PAM mode, species not given, read-out: EC50.

Like-named read-outs stand apart in the source and are kept apart here. A value given as a limit tells only on which side of the number the result lay.

As to `Cc1ccc(Cc2cc(C(=O)NC3CCN(C)CC3)nc3c(C)csc23)cn1` [Compound 112, 3-methyl-N-(1-methyl-4-piperidyl)-7-[(6-methyl-3-pyridyl)methyl]thieno[3,2-b]pyridine-5-carboxamide], the EC50 under setting [1] came out at 5.82 µM. Also, the Emax (Table 2, human M1) was found to be 36.7%.

In the case of `Cn1cc(-c2ccc(Cc3cc(C(=O)N[C@H]4CCOC4)nc4ccsc34)cn2)cn1` [Compound 343, 7-[[6-(1-methylpyrazol-4-yl)-3-pyridyl]methyl]-N-[(3S)-tetrahydrofuran-3-yl]thieno[3,2-b]pyridine-5-carboxamide], the EC50 under setting [1] worked out at 0.975 µM. The Emax (Table 2, human M1) stood at 80.8%.

Take `O=C(N[C@@H]1CCOC[C@H]1O)c1cc(Cc2ccc(C(F)(F)F)nc2)c2sccc2n1` [Compound 91, N-[(3S,4R)-3-hydroxytetrahydropyran-4-yl]-7-[[6-(trifluoromethyl)-3-pyridyl]methyl]thieno[3,2-b]pyridine-5-carboxamide]: the EC50 under setting [1] came to 0.0738 µM. For the same compound, the Emax (Table 2, human M1) was 87.9%.

As to `Cc1nc(-c2ccc(Cc3cc(C(=O)NC4CC(C)OC(C)C4)nc4ccsc34)cc2)co1` (stereo not shown) [Compound 299, N-(2,6-dimethyltetrahydropyran-4-yl)-7-[[4-(2-methyloxazol-4-yl)phenyl]methyl]thieno[3,2-b]pyridine-5-carboxamide], under setting [1], the EC50 came out at 0.702 µM. Further, the Emax (Table 2, human M1) is 75%.

On to `CO[C@H]1CCCC[C@@H]1NC(=O)c1cc(Oc2ccc(C)nc2)c2sccc2n1` [Compound 24, N-[(1S,2S)-2-methoxycyclohexyl]-7-[(6-methyl-3-pyridyl)oxy]thieno[3,2-b]pyridine-5-carboxamide], for which, under setting [2], the EC50 was more than 10 µM.

With `Cc1nn(C)cc1-c1ccc(Cc2cc(C(=O)N[C@H]3CCOC[C@@H]3O)nc3ccsc23)cc1` [Compound 248, 7-[[4-(1,3-dimethylpyrazol-4-yl)phenyl]methyl]-N-[(3R,4S)-3-hydroxytetrahydropyran-4-yl]thieno[3,2-b]pyridine-5-carboxamide], the EC50 under setting [1] is 4.88 µM. Moreover, under “Table 2, human M1”, the maximal response (Emax) is 71.3%.

Regarding `Cn1ccc2nc(C(=O)NC3CC(F)C3)cc(Cc3ccc(-c4nccs4)cc3)c21` (stereo not shown) [Compound 488, N-(3-fluorocyclobutyl)-1-methyl-7-[(4-thiazol-2-ylphenyl)methyl]pyrrolo[3,2-b]pyridine-5-carboxamide], the EC50 under setting [1] amounted to 1.15 µM. Also, the maximal effect (Emax) (Table 2, human M1) was 37.5%.

As for `Cc1ccc(Cc2cc(C(=O)N[C@H]3CCCNC3)nc3ccsc23)cn1` [Compound 266, 7-[(6-methyl-3-pyridyl)methyl]-N-[(3S)-3-piperidyl]thieno[3,2-b]pyridine-5-carboxamide], the EC50 under setting [1] was more than 10 µM. For the same compound, the maximal effect (Emax) (Table 2, human M1) was found to be 59.3%.

For `Cn1cc(-c2ccc(Cc3cc(C(=O)N[C@H]4CCCC[C@@H]4O)nc4ccsc34)c(F)c2)cn1` [Compound 51, 7-[[2-fluoro-4-(1-methylpyrazol-4-yl)phenyl]methyl]-N-[(1S,2S)-2-hydroxycyclohexyl]thieno[3,2-b]pyridine-5-carboxamide], the 50% effective concentration (EC50) under setting [1] is 3.61 µM. Further, the Emax (Table 2, human M1) is 76.9%.

Regarding `Cc1ccc(Oc2cc(C(=O)NC3CC(F)C3)nc3ccsc23)cn1` (stereo not shown) [Compound 17, N-(3-fluorocyclobutyl)-7-[(6-methyl-3-pyridyl)oxy]thieno[3,2-b]pyridine-5-carboxamide], the EC50 is more than 10 µM.

For `Cn1ccc(-c2ccc(Cc3cc(C(=O)NCC4CCOC4)nc4ccsc34)cn2)n1` (stereo not shown) [Compound 356, 7-[[6-(1-methylpyrazol-3-yl)-3-pyridyl]methyl]-N-(tetrahydrofuran-3-ylmethyl)thieno[3,2-b]pyridine-5-carboxamide], the concentration giving a half-maximal response (EC50) under setting [1] worked out at 0.39 µM. For the same compound, the Emax (Table 2, human M1) worked out at 84.8%.

Turning to `Cc1ccc(Cc2cc(C(=O)NC3CCCC(O)C3)nc3ccsc23)cn1` (stereo not shown) [Compound 49, N-(3-hydroxycyclohexyl)-7-[(6-methyl-3-pyridyl)methyl]thieno[3,2-b]pyridine-5-carboxamide], the EC50 under setting [2] was more than 10 µM.

For `Cc1nc(-c2ccc(Cc3cc(C(=O)NC4CCCCC4)nc4ccsc34)cc2)cs1` [Compound 185, N-cyclohexyl-7-[[4-(2-methylthiazol-4-yl)phenyl]methyl]thieno[3,2-b]pyridine-5-carboxamide], under setting [1], the concentration for a half-maximal effect (EC50) came out at 4.23 µM. The Emax (Table 2, human M1) was 52.1%.

As for `O=C(NC1CC2(COC2)C1)c1cc(Cc2ccc(-c3cncs3)cc2)c2sccc2n1` [Compound 398, N-(2-oxaspiro[3.3]heptan-6-yl)-7-[(4-thiazol-5-ylphenyl)methyl]thieno[3,2-b]pyridine-5-carboxamide], the EC50 under setting [1] was determined as 0.438 µM. For the setting “Table 2, human M1”, the Emax turned out to be 60.9%.

As to `Cn1ccc(-c2ccc(Cc3cc(C(=O)NC4CC(F)C4)nc4ccsc34)cn2)n1` (stereo not shown) [Compound 419, N-(3-fluorocyclobutyl)-7-[[6-(1-methylpyrazol-3-yl)-3-pyridyl]methyl]thieno[3,2-b]pyridine-5-carboxamide], the EC50 under setting [1] came out at 0.76 µM. For the same compound, the Emax (Table 2, human M1) is 70.1%.

On to `Cc1csc2c(Cc3ccc(-c4ccn(C)n4)cc3)cc(C(=O)NCC3CCOC3)nc12` (stereo not shown) [Compound 311, 3-methyl-7-[[4-(1-methylpyrazol-3-yl)phenyl]methyl]-N-(tetrahydrofuran-3-ylmethyl)thieno[3,2-b]pyridine-5-carboxamide], for which the concentration for a half-maximal effect (EC50) under setting [1] was determined as 0.714 µM. Moreover, where the note is “Table 2, human M1”, the maximum response (Emax) was found to be 77.1%.

On to `Cc1nc(-c2ccc(Cc3cc(C(=O)NC4CCN(C)CC4)nc4ccsc34)cc2)co1` [Compound 164, 7-[[4-(2-methyloxazol-4-yl)phenyl]methyl]-N-(1-methyl-4-piperidyl)thieno[3,2-b]pyridine-5-carboxamide], for which the EC50 under setting [1] amounted to 2.55 µM. In addition, the Emax (Table 2, human M1) was 74.6%.

`Cn1ccc(-c2ccc(Cc3cc(C(=O)NC4CC5(COC5)C4)nc4ccsc34)cn2)n1` [Compound 351, 7-[[6-(1-methylpyrazol-3-yl)-3-pyridyl]methyl]-N-(2-oxaspiro[3.3]heptan-6-yl)thieno[3,2-b]pyridine-5-carboxamide]: the EC50 under setting [1] is 0.143 µM. Besides, the Emax (Table 2, human M1) came out at 89.9%.

Regarding `Cc1nc(-c2ccc(Cc3cc(C(=O)N4CCC(C)(O)CC4)nc4ccsc34)cc2)co1` [Compound 174, (4-hydroxy-4-methyl-1-piperidyl)-[7-[[4-(2-methyloxazol-4-yl)phenyl]methyl]thieno[3,2-b]pyridin-5-yl]methanone], the EC50 under setting [1] was more than 10 µM. Under “Table 2, human M1”, the Emax came out at 45.1%.

On to `Cn1ncc2nc(C(=O)NC[C@H]3CCCO3)cc(Cc3ccc(-c4cscn4)cc3)c21` [Compound 495, 1-methyl-N-[[(2R)-tetrahydrofuran-2-yl]methyl]-7-[(4-thiazol-4-ylphenyl)methyl]-pyrazolo[4,3-b]pyridine-5-carboxamide], for which the EC50 under setting [1] was 3.91 µM. Moreover, for the setting “Table 2, human M1”, the Emax worked out at 65.1%.

By EC50 is commonly meant the midpoint of the concentration-response curve. The Emax is the size of the effect at its maximum, as opposed to the concentration needed.
